Measurements: ChEMBL document CHEMBL1136805, “Nitroaryl phosphoramides as novel prodrugs for E. coli nitroreductase activation in enzyme prodrug therapy” (J Med Chem, 2003)

Assays:
[1] = Ratio of Kcat to that of Km was determined; type: ADME
[2] = Kcat was determined; type: ADME
SK-OV-3 [3] = assay: Inhibitory activity against SKOV3 (human ovarian carcinoma) cell line infected at lower infection rate of 10 pfu/cell with Escherichia coli nitroreductase combination after 18 hours drug exposure; type: functional, cell-based; conditions: SK-OV-3, 18 h
SK-OV-3 [4] = assay: Inhibitory activity against SKOV3 (human ovarian carcinoma) cell line without Escherichia coli nitroreductase combination after 18 hours drug exposure; type: functional, cell-based
[5] = Inhibitory activity against V79 (chinese hamster fibroblast) cell line with Escherichia coli nitroreductase combination after 72 hours drug exposure; type: functional, cell-based, Cricetulus griseus
[6] = Inhibitory activity against V79 (chinese hamster fibroblast) cell line without Escherichia coli nitroreductase combination after 1 hour drug exposure; type: functional, cell-based, Cricetulus griseus
[7] = Inhibitory activity against V79 (chinese hamster fibroblast) cell line without Escherichia coli nitroreductase combination after 72 hours drug exposure; type: functional, cell-based, Cricetulus griseus
[8] = Inhibitory activity against V79 (chinese hamster fibroblast) cell line with Escherichia coli nitroreductase combination after 1 hour drug exposure; type: functional, cell-based, Cricetulus griseus
[9] = Ratio of the activity in absence to that of presence of Escherichia coli nitroreductase in SKOV3 (human ovarian carcinoma) cell line; type: functional
[10] = Ratio of the activity in absence to that of presence of the Escherichia coli nitroreductase in SKOV3 (human ovarian carcinoma) cell line infected at lower infection rate of 10 pfu/cell; type: functional
SK-OV-3 [11] = assay: Inhibitory activity against SKOV3 (human ovarian carcinoma) cell line with Escherichia coli nitroreductase combination after 18 hours drug exposure; type: functional, cell-based; conditions: SK-OV-3, 18 h
[12] = Ratio of the activity in absence to that of presence of Escherichia coli nitroreductase V79 (chinese hamster fibroblast) cell line; type: functional

SMILES	1/2Kcat/Km [1]	k cat [2]	IC50 (SK-OV-3 [3])	IC50 (SK-OV-3 [4]; Homo sapiens, SK-OV-3, 18 h)	IC50 (SK-OV-3 [4]; sk-ov-3)	IC50 [5]	IC50 [6]	IC50 [7]	IC50 [8]	Ratio [9]	Ratio [10]	IC50 (SK-OV-3 [11])	Ratio [12]	k cat/Km [1]
NC(=O)c1cc(N2CC2)c([N+](=O)[O-])cc1[N+](=O)[O-] [TRETAZICAR]	3746 M⁻¹ s⁻¹	6.6 s⁻¹	52 µM	> 1000 µM	625 µM	36 nM	> 100 µM	254 µM	310 nM	>213	12	4.7 µM		
O=[N+]([O-])c1ccc2c(c1)NP(=O)(N(CCCl)CCCl)OC2 (stereo not drawn)				550 µM		3000 nM		> 100 µM		10		55 µM	>33	
O=[N+]([O-])c1cccc([C@H]2CCNP(=O)(N(CCCl)CCCl)O2)c1 (stereo partly drawn)				680 µM		29 nM	> 100 µM	832 µM	340 nM	145		4.7 µM		
NP(=O)(OCc1ccc([N+](=O)[O-])cc1)N(CCCl)CCCl (stereo not drawn)		14 s⁻¹	6.2 µM	> 10000 µM		0.4 nM	> 100 µM	67 µM	10 nM	>833	>161	1.2 µM		71949 M⁻¹ s⁻¹
O=[N+]([O-])c1cccc([C@@H]2CCNP(=O)(N(CCCl)CCCl)O2)c1 (stereo partly drawn)				> 1000 µM		27 nM	> 100 µM	608 µM	170 nM	>200		5 µM		
